Reference: patent publication US8501911B2, “Methods of reducing inflammation and mucus hypersecretion” (Biomarck Pharmaceuticals, Ltd, priority 1999, dated 2013)

What was measured:
Type in all cases: cell-based, human
[1] = test system: PP2A; assay: Protein phosphatase activity assay in NHBE cells, PP2A; settings: 8-Br-cGMP as low as 0.1 μM
Description: (§1) To confirm further activation of PP2A by PKG in NHBE cells, cytosolic PP1 and PP2A activities were determined after exposure of the cells to 8-Br-cGMP. […] Accordingly, this PP2A activity appeared critical for mucin secretion to occur; when PKG-induced MARCKS dephosphorylation was blocked by okadaic acid or fostriecin, the secretory response to PKC/PKG activation or UTP stimulation was ameliorated (see Results-I-6-1 and Results-I-6-2, above).
(§2) Protein Phosphatase Activity Assay—PP1 and PP2A activities were measured using a protein phosphatase assay system (Life Technologies, Inc.) as known in the art with slight modification. Huang et al., Adv. Exp. Med. Biol. 396, 209-215 (1996). Briefly, NHBE cells were treated with 8-Br-cGMP or medium alone for 5 min. Cells were then scraped into a lysis buffer (50 mM Tris-HCl (pH 7.4), 0.1% beta-mecaptoethanol, 0.1 mM EDTA, 1 mM benaamidine, 10 μg/ml pepstatin A, 10 μg/ml leupeptin) and disrupted by sonication for 20 s at 4° C. […] Released ^32Pi was counted by scintillation. The protein concentration of each sample was determined by the Bradford assay. PP2A activity was expressed as the sample total phosphatase activity minus the activity remaining in the presence of 1 nM okadaic acid. PP1 activity was expressed as the difference between the activities remaining in the presence of 1 nM and 1 μM okadaic acid, respectively. […]

[2] = test system: PP1; assay: Protein phosphatase activity assay in NHBE cells, PP1; settings: after exposure to 8-Br-cGMP
Description: as §1, §2

[3] = test system: MARCKS protein; assay: MARCKS protein level in NHBE cells (Western blot); settings: TNF-α 10 ng/ml 4 h
Description: (§3) NHBE cells were treated with the antisense or the control oligonucleotide for 3 days and then stimulated with PMA (100 nM)+8-Br-cGMP (1 μM) for 15 min. Mucin secretion was analyzed by ELISA. Total RNA and protein were isolated from treated cells. MARCKS mRNA was assessed by Northern hybridization, and protein was assessed by Western blot. […] In this regard, MARCKS mRNA as a percent of control is shown in the following results which are designated as Results-I-3A-2:
(§4) Antisense Oligonucleotides—MARCKS antisense oligonucleotide and its corresponding control oligonucleotide were synthesized at Biognostik GmbH (Gottingen, Germany). […] Cells were then incubated with secretagogues, and mucin secretion was measured by ELISA. […] MARCKS mRNA was assessed by Northern hybridization according to conventional procedures using human MARCKS cDNA as a probe. MARCKS protein level was determined by Western blot using purified anti-MARCKS IgG1 (clone 2F12) as the primary detection antibody.
(§5) NHBE cells were incubated with 10 ng/ml human recombinant TNF-α or medium alone for 4 hrs, then stimulated with PMA (100 nM)+8-Br-cGMP (1 μM) for 15 min, or UTP (0.1 mM) for 2 hrs. Secreted mucin was collected and measured by ELISA. […] MARCKS mRNA was assessed by Northern hybridization, and protein by the Western Blot technique. […]

[4] = test system: MARCKS mRNA; assay: MARCKS mRNA level in NHBE cells (Northern hybridization); settings: TNF-α 10 ng/ml 4 h, then PMA 100 nM+8-Br-cGMP 1 μM 15 min
Description: as §3, §4, §5

| Molecule | Increase of PP2A activity [1] | PP2A activity ([1]; 5 min, baseline 0.1) [nmol/mnin/mg proteins] | PP1 activity [2] | Increase in MARCKS protein vs medium only (Western blot) [3] | MARCKS protein level relative to control ([3]; then PMA 100 nM+8-Br-cGMP 1 μM 15 min) [%] | MARCKS mRNA level relative to control [4] [%] |
| --- | --- | --- | --- | --- | --- | --- |
| Nc1nc2c(nc(Br)n2[C@@H]2O[C@@H]3COP(=O)(O)O[C@H]3[C@H]2O)c(=O)[nH]1 [8-Br-cGMP] | approximately 3 fold | 0.3 | unchanged |  |  |  |
| TNF-α |  |  |  | three- to four-fold increase | 352 | 115 |
